Assay results as given in US20110200618A1, “ERBB4 INHIBITORS AND USES THEREOF IN TREATMENT OF NEUROPSYCHIATRIC DISORDERS” (priority 2008, published 2011).

Experiments:
Format in all cases: cell-based
[1] = tested on: NRG1 induced ERK activation; assay: NRG1 induced ERK activation in human olfactory epithelial (hOE) cultures, western blot; details: healthy person, inhibitors 20 min, then 100 ng/ml NRG1 10 min, 10 μM U0126, 10 nM wortmannin, 100 nM K-252, 2.5 μM AG1478, 1 μM AG879
Description: Protein extracts were analyzed for the expression of p-ERK and glyeraldehyde 3-dehydrogenase (GAPDH). U, 10 μM of U0126: W, 10 nM of wortmannin: K, 100 nM K-252, 2.5 μM of AG1478 and 1 μM of AG879;
Protein extracts were analyzed for the expression of p-ERK and glyceraldehyde 3-dehydrogenase (GAPDH). (A) A representative western blotting (B) p-ERK intensities were normalized with respect to GAPDH, which were then used to calculate percent inhibition.
As an internal control experiment, the cells were also incubated with inhibitors for ERK, AKT or trkb activation, U0126, wortmannin or K-252 respectively.

[2] = tested on: NRG1 induced ERK activation; assay: NRG1 stimulation of post-mortem human prefrontal cortex tissues, ERK activation; details: post-mortem PFC of healthy control; 2.5 μM AG1478 pre-incubated 15 min, 100 ng/ml NRG1
Description: NRG1 stimulation of human post-mortem PFC. 100 mg of post-mortem brain tissues of a healthy control subject were incubated with or without 100 ng/ml of NRG1 in the presence or absence of 2.5 μM AG1478. Protein extracts were analyzed for p-ERK and ERK;
Protein extracts were analyzed for the expression of ERK, AKT and GSK and their phosphorylated counterparts;
erbB stimulation/inhibition experiment wastested in post-mortem brain tissues. FIG. 2 represents an experiment, in which the PFC of a healthy control subject was stimulated with NRG1 in the presence of AG1478. In this experiment, the tissues were incubated with the inhibitor for 15 min before added with 100 ng/ml of NRG1.
GSK1495829A was tested in post-mortem mouse and human brain tissues. FIG. 4 represents an experiment, in which the PFC tissues of a healthy control subject were pre-incubated with varied concentrations of the inhibitor for 15 min before the ligand stimulation with 100 ng/ml of NRG1. […] One possible explanation could be that the brain tissues are less permeable to the inhibitors than OE culture cells.

activation of ERK = assay: NRG1 stimulation of post-mortem mouse brain tissues after 60 min pre-incubation, ERK activation; details: post-mortem mouse brain tissue slices, GSK compound at 10 μM, 100 ng/ml NRG1, vehicle control also failed to respond to NRG1
Description: Protein extracts were analyzed for the expression of p-ERK;
To enhance the permeability of the inhibitors, tissue slices were pre-incubated with the inhibitors for 60 min before added with NRG1.

activation of AKT = assay: NRG1 stimulation of post-mortem mouse brain tissues after 60 min pre-incubation, AKT activation; details: post-mortem mouse brain tissue slices, GSK compound at 10 μM, 100 ng/ml NRG1

Row | Structure (SMILES) | NRG1 induced p-ERK with respect to GAPDH [1] | NRG1 induced ERK activation (ratio p-ERK to ERK) [2] | activation of ERK (activation of ERK) | activation of AKT (activation of AKT)
1 | CC(C)(C)c1cc(C=C(C#N)C(N)=S)cc(C(C)(C)C)c1O [AG 879, α-Cyano-(3,5-di-t-butyl-4-hydroxy)thiocinnamide] | attenuated | – | – | –
2 | COc1cc2ncnc(Nc3cccc(Cl)c3)c2cc1OC [AG 1478, 4-(3-Chloroanilino)-6,7-dimethoxyquinazoline] | attenuated | significantly reduced | did not reduce | did not reduce
3 | N#CC(=C(/N)Sc1ccccc1N)/C(C#N)=C(\N)Sc1ccccc1N [U0126] | significantly reduced | – | – | –
